Results as given in patent publication US8134015B2, “Compound inhibiting in vivo phosphorous transport and medicine containing the same” (Kyowa Hakko Kirin Co., Ltd., priority 2003, dated 2012).
Counter-ions that a name gives are not always drawn.

Target: T1, rat NaPi-2b (Rattus norvegicus, UniProt Q9JJ09)
T1 construct: expressed in transfected cells; host or cells: Xenopus oocytes injected with cRNA
T1 sequence (Q9JJ09 1-695): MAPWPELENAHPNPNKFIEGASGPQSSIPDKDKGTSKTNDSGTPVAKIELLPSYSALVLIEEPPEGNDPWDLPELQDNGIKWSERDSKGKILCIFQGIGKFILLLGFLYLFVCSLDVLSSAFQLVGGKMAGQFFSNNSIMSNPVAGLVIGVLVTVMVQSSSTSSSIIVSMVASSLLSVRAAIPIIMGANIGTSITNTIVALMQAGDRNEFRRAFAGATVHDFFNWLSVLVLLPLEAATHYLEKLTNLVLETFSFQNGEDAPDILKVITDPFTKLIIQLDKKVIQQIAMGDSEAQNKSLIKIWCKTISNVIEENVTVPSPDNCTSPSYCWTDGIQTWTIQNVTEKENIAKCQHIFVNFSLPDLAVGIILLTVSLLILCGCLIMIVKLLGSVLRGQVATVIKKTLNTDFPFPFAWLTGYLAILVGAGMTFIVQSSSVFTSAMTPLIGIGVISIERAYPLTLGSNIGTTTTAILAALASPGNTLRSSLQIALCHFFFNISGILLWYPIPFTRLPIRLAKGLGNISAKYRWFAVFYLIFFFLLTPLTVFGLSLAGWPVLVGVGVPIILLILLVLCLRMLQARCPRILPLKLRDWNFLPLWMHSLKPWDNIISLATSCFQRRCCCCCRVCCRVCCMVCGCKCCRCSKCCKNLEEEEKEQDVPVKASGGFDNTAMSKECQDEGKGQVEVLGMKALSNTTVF
Assay: Sodium-dependent phosphate uptake of Xenopus oocytes which expressed NaPi-2b (32P)
Assay type: cell-based
Details: for IC50: Xenopus oocytes expressing rat NaPi-2b, 32P radioactive phosphorus, read-out: IC50 (phosphate uptake inhibitory activity); for inhibition at 300 µM: phosphate uptake, oocytes expressing rat NaPi-2b, determined from inhibition curve
Procedure, shortened: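 Inhibition at 300 μM and 100 μM was read off one inhibition curve of 32P phosphate uptake. Uptake was measured in Xenopus oocytes cultured 2 days after injection of cRNA for cloned rat NaPi-2b.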

SMILES	IC50	inhibition at 300 µM
CCN(CC)CCN(CCN(CC)CC)Cc1cccc(C(=O)Nc2ccc(N3CCCCC3)cc2C(=O)N/N=C/c2ccc(F)cc2)c1 [Compound 907, 3-{[Bis-(2-diethylamino-ethyl)-amino]-methyl}-N-[2-(4-fluoro-benzylidene-hydrazinocarbonyl)-4-piperidin-1-yl-phenyl]-benzamide]	6.75 µM	–
COc1cc(OC)cc(C(=O)Nc2ccc(Br)cc2C(=O)N/N=C/c2ccc(C)cc2)c1 [Compound 119, N-[4-Bromo-2-(4-methyl-benzylidene-hydrazinocarbonyl)-phenyl]-3,5-dimethoxy-benzamide]	0.74 µM	–
CC(O)CN(Cc1cccc(C(=O)Nc2ccc(F)cc2C(=O)Nc2ccc(F)cc2C(=O)N/N=C/c2cccc(F)c2)c1)CC(C)O (stereo not shown) [Compound 988, 2-(3-{[Bis-(2-hydroxy-propyl)-amino]-methyl}-benzoylamino)-5-fluoro-N-[4-fluoro-2-(3-fluoro-benzylidene-hydrazinocarbonyl)-phenyl]-benzamide]	3.88 µM	–
CCN(CC)c1ccc(/C=N/NC(=O)c2ccccc2NC(=O)c2ccc(OC)c(OC)c2)cc1 [Compound 241, N-[2-(4-Diethylamino-benzylidene-hydrazinocarbonyl)-phenyl]-3,4-dimethoxy-benzamide]	–	46.9%
CCN1CC(NCc2ccc(C(=O)Nc3ccc(Br)cc3C(=O)N/N=C/c3cccc(F)c3)cc2)CN1CC [Compound 752, N-[4-Bromo-2-(3-fluoro-benzylidene-hydrazinocarbonyl)-phenyl]-4-[(1,2-diethyl-pyrazolidin-4-ylamino)-methyl]-benzamide]	< 3 µM	–
CCN(CC)CCN(C)Cc1cccc(C(=O)Nc2scc(C)c2C(=O)N/N=C/c2ccc(C)c(C)c2)c1 [Compound 563, 3-{[(2-Diethylamino-ethyl)-methyl-amino]-methyl}-N-[3-(3,4-dimethyl-benzylidene-hydrazinocarbonyl)-4-methyl-thiophen-2-yl]-benzamide]	< 1 µM	–
Cc1ccc(/C=N/NC(=O)c2cc(Br)ccc2NC(=O)c2ccccn2)cc1 [Compound 356, Pyridin-2-carboxylic acid [4-bromo-2-(4-methyl-benzylidene-hydrazinocarbonyl)-phenyl]-amide hydrochloride]	0.17 µM	–
CCN(CC)CCN(C)Cc1cccc(C(=O)Nc2ccc(I)cc2C(=O)N/N=C/c2ccc(C)cc2)c1 [Compound 475, 3-{[(2-Diethylamino-ethyl)-methyl-amino]-methyl}-N-[4-iodo-2-(4-methyl-benzylidene-hydrazinocarbonyl)-phenyl]-benzamide]	< 3 µM	–
COc1ccc(C(=O)Nc2ccc(Br)cc2C(=O)N/N=C/C=C/c2ccccc2)cc1OC [Compound 13, N-[4-Bromo-2-(3-phenyl-allylidene-hydrazinocarbonyl)-phenyl]-3,4-dimethoxy-benzamide]	9.22 µM	–
COc1ccc(NC(=O)c2ccc(OC)c(OC)c2)c(C(=O)N/N=C/c2ccc(C)c(C)c2)c1 [Compound 145, N-[2-(3,4-Dimethyl-benzylidene-hydrazinocarbonyl)-4-methoxy-phenyl]-3,4-dimethoxy-benzamide]	3.82 µM	–
Cc1ccc(/C=N/NC(=O)c2cscc2NC(=O)c2cccc(CN(CC(C)O)CC(C)O)c2)cc1 (stereo not shown) [Compound 976, 3-{[Bis-(2-hydroxy-propyl)-amino]-methyl}-N-[4-(4-methyl-benzylidene-hydrazinocarbonyl)-thiophen-3-yl]-benzamide]	10.7 µM	–
CCN1CC(NCc2ccc(-c3nc4ccc(Br)cc4c(=O)n3/N=C/c3ccc(Cl)c(C(F)(F)F)c3)cc2)CN1CC [Compound 753, 6-Bromo-3-[(4-chloro-3-trifluoromethyl-benzylidene)-amino]-2-{4-[(1,2-diethyl-pyrazolidin-4-ylamino)-methyl]-phenyl}-3H-quinazolin-4-one]	12.4 µM	–
CCN(CC)CCN(C)Cc1cccc(C(=O)Nc2ccc(Cl)cc2C(=O)N/N=C/c2ccc(OCC(=O)O)cc2)c1 [Compound 1000, (4-{[5-Chloro-2-(3-{[(2-diethylamino-ethyl)-methyl-amino]-methyl}-benzoylamino)-benzoyl]-hydrazinomethyl}-phenoxy)-acetic acid]	–	32.1%
O=C(Nc1ccc(Br)cc1C(=O)N/N=C/c1ccc(Cl)cc1)c1ccc(F)cc1 [Compound 108, N-[4-Bromo-2-(4-chloro-benzylidene-hydrazinocarbonyl)-phenyl]-4-fluoro-benzamide]	3.83 µM	–
Cc1ccc(CNNC(=O)c2cc(Br)ccc2NC(=O)c2ccccn2)cc1 [Compound 544, Pyridin-2-carboxylic acid {4-bromo-2-[N′-(4-methyl-benzyl)-hydrazinocarbonyl]-phenyl}-amide]	–	60%
COc1cc(OC)cc(C(=O)Nc2ccc(Br)cc2C(=O)NN=Cc2cccc(C)c2)c1 [Compound 118, N-[4-Bromo-2-(3-methyl-benzylidene-hydrazinocarbonyl)-phenyl]-3,5-dimethoxy-benzamide]	6.07 µM	–

Continued, values first:

IC50	inhibition at 300 µM	SMILES
< 3 µM	–	COc1ccc(/C=N/NC(=O)c2c(NC(=O)c3cccc(CN4CCN(CCO)CC4)c3)sc3c2CCCC3)cc1 [Compound 626, 3-[4-(2-Hydroxy-ethyl)-piperazin-1-ylmethyl]-N-[3-(4-methoxy-benzylidene-hydrazinocarbonyl)-4,5,6,7-tetrahydro-benzo-[b]thiophen-2-yl]-benzamide]
< 3 µM	–	Cc1ccc(/C=N/NC(=O)c2cc(Br)ccc2NC(=O)c2cccc(CS(=O)(=O)CCO)c2)cc1 [Compound 676, N-[4-Bromo-2-(4-methyl-benzylidene-hydrazinocarbonyl)-phenyl]-3-(2-hydroxy-ethanesulfonylmethyl)-benzamide]
0.69 µM	–	COc1cccc(/C=N/NC(=O)c2cc(Cl)ccc2NC(=O)c2cccc(CN(CCO)CCO)c2)c1 [Compound 408, 3-{[Bis-(2-hydroxy-ethyl)-amino]-methyl}-N-[4-chloro-2-(3-methoxy-benzylidene-hydrazinocarbonyl)-phenyl]-benzamide]
1.28 µM	–	COc1ccc(/C=N/NC(=O)c2cc(Cl)ccc2NC(=O)c2cccc(CSCC(O)CO)c2)cc1 (stereo not shown) [Compound 1011, N-[4-Chloro-2-(4-methoxy-benzylidene-hydrazinocarbonyl)-phenyl]-3-(2,3-dihydroxy-propylsulfanylmethyl)-benzamide]
< 3 µM	–	Cc1csc(NC(=O)c2cccc(CN3CCN(CCO)CC3)c2)c1C(=O)N/N=C/c1ccc(Cl)c(C(F)(F)F)c1 [Compound 579, N-[3-(4-Chloro-3-trifluoromethyl-benzylidene-hydrazinocarbonyl)-4-methyl-thiophen-2-yl]-3-[4-(2-hydroxy-ethyl)-piperazin-1-ylmethyl]-benzamide]
1 µM	–	Cc1ccc(/C=N/NC(=O)c2cc(N3CCCCC3)ccc2NC(=O)c2cccc(CN3CCC(O)CC3)c2)cc1 [Compound 871, 3-(4-Hydroxy-piperidin-1-ylmethyl)-N-[2-(4-methyl-benzylidene-hydrazinocarbonyl)-4-piperidin-1-yl-phenyl]-benzamide]
< 3 µM	–	O=C(Nc1ccc(Br)cc1C(=O)N/N=C/c1cccc(F)c1)c1cccc(C[S+]([O-])c2nc[nH]n2)c1 (stereo not shown) [Compound 341, N-[4-Bromo-2-(3-fluoro-benzylidene-hydrazinocarbonyl)-phenyl]-3-(1H-[1,2,4]triazole-3-sulfinylmethyl)-benzamide]
< 3 µM	–	O=C(Nc1cc2ccccc2cc1C(=O)N/N=C/c1ccc(Cl)c(C(F)(F)F)c1)c1cccc(CN2CCN(CCO)CC2)c1 [Compound 972, N-[3-(4-Chloro-3-trifluoromethyl-benzylidene-hydrazinocarbonyl)-naphthalen-2-yl]-3-[4-(2-hydroxy-ethyl)-piperazin-1-ylmethyl]-benzamide]
< 3 µM	–	Cc1ccc(/C=N/NC(=O)c2c(NC(=O)c3cccc(CN4CCN(CCO)CC4)c3)sc3c2CCCC3)cc1 [Compound 622, 3-[4-(2-Hydroxy-ethyl)-piperazin-1-ylmethyl]-N-[3-(4-methyl-benzylidene-hydrazinocarbonyl)-4,5,6,7-tetrahydro-benzo-[b]thiophen-2-yl]-benzamide]
0.25 µM	–	CCN(CC)CCN(C)Cc1cccc(C(=O)Nc2ccc(Cl)cc2C(=O)N/N=C/c2ccc(Cl)c(C(F)(F)F)c2)c1 [Compound 384, N-[4-Chloro-2-(4-chloro-3-trifluoromethyl-benzylidene-hydrazinocarbonyl)-phenyl]-3-{[(2-diethylamino-ethyl)-methyl-amino]-methyl}-benzamide]
7.36 µM	–	O=C(Nc1ccc(Cl)cc1C(=O)N/N=C/c1ccc(Cl)c(C(F)(F)F)c1)c1ccncc1 [Compound 194, N-[4-Chloro-2-(4-chloro-3-trifluoromethyl-benzylidene-hydrazinocarbonyl)-phenyl]-isonicotinamide]
–	49.2%	O=C(Nc1ccc(Br)cc1C(=O)N/N=C/c1ccc(Cl)c(C(F)(F)F)c1)c1ccc(CN2CCN(c3ccccn3)CC2)cc1 [Compound 776, N-[4-Bromo-2-(4-chloro-3-trifluoromethyl-benzylidene-hydrazinocarbonyl)-phenyl]-4-(4-pyridin-2-yl-piperazin-1-ylmethyl)-benzamide]
